Data reported in patent publication EP2100894A1, “Pyridopyrimidines used as Plk1 (polo-like kinase) inhibitors” (4SC AG, priority 2008, dated 2009).

Biological target: T1, PIk1 (Homo sapiens, UniProt P53350)
T1 construct: His tag (histidine tag) (N); made in house; host or cells: SF9 insect cells
Assay: PIk1 kinase activity inhibition assay (33P incorporation into alpha casein, flash plates)
Type: biochemical
Settings: recombinant N-terminally histidine-tagged PIk1, alpha casein as substrate, 100 nM Li-ATP, 80 minutes at 30°C
Procedure: The inhibition of PIk1 kinase activity can be measured using recombinant PIk1 protein expressed as an N-terminally histidine-tagged protein in SF9 insect cells and alpha casein as substrate. The PIk1 assay is run in 96 well plates by incubating 50 to 100 ng per well recombinant PIk1, 500 ng per well alpha casein (Sigma, # C-6780) as substrate, 10 µl of compound of invention (test compounds were dissolved as 20 mM solutions in dimethylsulfoxide (DMSO) and subsequently diluted), and 100 nM Li-ATP (including ^33P-ATP) in 100 µl of reaction buffer ([…], pH 7.5; 3 mM MgCl2; 3 mM MnCl2; 3 µM Na-Orthovanadat; 1 mM DTT; 1 µg/ml PEG 8000) for 80 minutes at 30°C. The reactions are terminated by adding 100 µl stopping buffer (2% H3PO4 for 5 minutes) and are washed 3 times with washing solution (0,9% NaCl). Determining ^33P incorporated into the protein substrate alpha casein, the detection is based on the adhesion of the phosphorylated protein to the surface of scintillator-coated flash plates (Perkin Elmer, USA; # SMP-200). Phosphorylation of alpha casein is measured by counting the radioactivity bound to the plate for 60 sec. using a plate reader (Perkin Elmer, USA; Wallac Microbeta). By this method, the IC50 value of the PIk1 inhibition is determined as described above. […]

T1 sequence (P53350 whole entry): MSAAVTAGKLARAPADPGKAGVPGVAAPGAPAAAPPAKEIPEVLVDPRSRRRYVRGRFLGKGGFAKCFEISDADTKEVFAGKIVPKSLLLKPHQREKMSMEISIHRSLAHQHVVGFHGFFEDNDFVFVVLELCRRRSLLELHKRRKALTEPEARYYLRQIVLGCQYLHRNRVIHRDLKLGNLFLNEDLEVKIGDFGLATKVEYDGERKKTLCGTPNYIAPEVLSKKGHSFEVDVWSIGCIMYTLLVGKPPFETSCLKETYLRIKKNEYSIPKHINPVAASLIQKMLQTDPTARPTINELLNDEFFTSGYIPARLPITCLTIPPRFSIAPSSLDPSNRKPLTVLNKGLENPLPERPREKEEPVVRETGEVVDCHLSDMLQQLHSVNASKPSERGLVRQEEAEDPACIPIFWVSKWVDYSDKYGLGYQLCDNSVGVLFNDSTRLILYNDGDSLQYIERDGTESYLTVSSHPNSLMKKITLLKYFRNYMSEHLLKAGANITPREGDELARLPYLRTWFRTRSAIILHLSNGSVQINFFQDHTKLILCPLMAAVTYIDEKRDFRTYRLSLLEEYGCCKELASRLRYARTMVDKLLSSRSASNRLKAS

IC50 | Structure (SMILES)
< 100 nM | C/C=C/c1c(OCC2CC2)c(=O)n(C)c2cnc(Nc3ccc(C(=O)NC4CCN(C)CC4)cc3OC)nc12 [Example 27, 4-({7-(cyclopropylmethoxy)-5-methyl-6-oxo-8-[(1E)-prop-1-en-1-yl]-5,6-dihydropyrido[3,2-d]pyrimidin-2-yl}amino)-3-methoxy-N-(1-methylpiperidin-4-yl)benzamide]
< 1000 nM | C/C=C/c1c(OC)c(=O)n(C)c2cnc(Nc3ccc(C(=O)Nc4cccnc4)cc3OC)nc12 [Example 28, 3-methoxy-4-({7-methoxy-5-methyl-6-oxo-8-[(1E)-prop-1-en-1-yl]-5,6-dihydropyrido[3,2-d]pyrimidin-2-yl}amino)-N-pyridin-3-ylbenzamide]
< 100 nM | C/C=C/c1c(OC)c(=O)n(C)c2cnc(Nc3ccc(C(=O)N[C@@H](C)Cc4c[nH]cn4)cc3OC)nc12 [Example 29, N-[(1S)-2-(1H-imidazol-4-yl)-1-methylethyl]-3-methoxy-4-({7-methoxy-5-methyl-6-oxo-8-[(1E)-prop-1-en-1-yl]-5,6-dihydropyrido[3,2-d]pyrimidin-2-yl}amino)benzamide]
< 100 nM | COc1cc(C(=O)NC2CCN(C)CC2)ccc1Nc1ncc2c(n1)c(-c1ccsc1)c(OC(C)C)c(=O)n2C [Example 31, 4-{[7-isopropoxy-5-methyl-6-oxo-8-(3-thienyl)-5,6-dihydropyrido[3,2-d]pyrimidin-2-yl]amino}-3-methoxy-N-(1-methylpiperidin-4-yl)benzamide]
< 100 nM | COc1cc(C(=O)NC2CCN(C)CC2)ccc1Nc1ncc2c(n1)c(-c1ccsc1)c(OCC1CC1)c(=O)n2C [Example 32, 4-{[7-(cyclopropylmethoxy)-5-methyl-6-oxo-8-(3-thienyl)-5,6-dihydro-pyrido[3,2-d]pyrimidin-2-yl]amino}-3-methoxy-N-(1-methylpiperidin-4-yl)benzamide]
< 1000 nM | COc1cc(C(=O)NC2CCN(C)CC2)ccc1Nc1ncc2c(n1)c(-c1cscc1C)c(OC)c(=O)n2C [Example 33, 3-methoxy-4-{[7-methoxy-5-methyl-8-(4-methyl-3-thienyl)-6-oxo-5,6-dihydropyrido[3,2-d]pyrimidin-2-yl]amino}-N-(1-methylpiperidin-4-yl)benzamide]
< 1000 nM | COc1cc(C(=O)NC2CCN(C)CC2)ccc1Nc1ncc2c(n1)c(-c1cncnc1)c(OC)c(=O)n2C [Example 34, 3-methoxy-4-[(7-methoxy-5-methyl-6-oxo-8-pyrimidin-5-yl-5,6-dihydro-pyrido[3,2-d]pyrimidin-2-yl)amino]-N-(1-methylpiperidin-4-yl)benzamide]
< 1000 nM | COc1cc(C(=O)NC2CCN(C)CC2)ccc1Nc1ncc2c(n1)c(-c1cnn(C)c1)c(OC)c(=O)n2C [Example 35, 3-methoxy-4-{[7-methoxy-5-methyl-8-(1-methyl-1H-pyrazol-4-yl)-6-oxo-5,6-dihydropyrido[3,2-d]pyrimidin-2-yl]amino}-N-(1-methylpiperidin-4-yl)benzamide]
< 100 nM | CCOc1c(C2CC2)c2nc(Nc3ccc(C(=O)NC4CCN(C)CC4)cc3OC)ncc2n(C)c1=O [Example 37, 4-[(8-cyclopropyl-7-ethoxy-5-methyl-6-oxo-5,6-dihydropyrido[3,2-d]pyrimidin-2-yl)amino]-3-methoxy-N-(1-methylpiperidin-4-yl)benzamide]
< 10 nM | COc1cc(C(=O)NC2CCN(C)CC2)ccc1Nc1ncc2c(n1)c(C1CC1)c(OCC1CC1)c(=O)n2C [Example 38, 4-{[8-cyclopropyl-7-(cyclopropylmethoxy)-5-methyl-6-oxo-5,6-dihydro-pyrido[3,2-d]pyrimidin-2-yl]amino}-3-methoxy-N-(1-methylpiperidin-4-yl)benzamide]
< 10 nM | COc1cc(C(=O)NC2CCN(C)CC2)ccc1Nc1ncc2c(n1)c(-c1ccoc1)c(OCC1CC1)c(=O)n2C [Example 39, 4-{[7-(cyclopropylmethoxy)-8-(3-furyl)-5-methyl-6-oxo-5,6-dihydro-pyrido[3,2-d]pyrimidin-2-yl]amino}-3-methoxy-N-(1-methylpiperidin-4-yl)benzamide]
< 100 nM | C/C=C/c1c(OCC2CCCC2)c(=O)n(C)c2cnc(Nc3ccc(C(=O)NC4CCN(C)CC4)cc3OC)nc12 [Example 42, 4-({7-(cyclopentylmethoxy)-5-methyl-6-oxo-8-[(1E)-prop-1-en-1-yl]-5,6-dihydropyrido[3,2-d]pyrimidin-2-yl}amino)-3-methoxy-N-(1-methylpiperidin-4-yl)benzamide]
< 10 nM | C/C=C/c1c(OC2CCC2)c(=O)n(C)c2cnc(Nc3ccc(C(=O)NC4CCN(C)CC4)cc3OC)nc12 [Example 43, 4-({7-(cyclobutyloxy)-5-methyl-6-oxo-8-[(1E)-prop-1-en-1-yl]-5,6-dihydropyrido[3,2-d]pyrimidin-2-yl}amino)-3-methoxy-N-(1-methylpiperidin-4-yl)benzamide]
< 100 nM | CCOc1c(-c2ncco2)c2nc(Nc3ccc(C(=O)NC4CCN(C)CC4)cc3OC)ncc2n(C)c1=O [Example 44, 4-{[7-ethoxy-5-methyl-8-(1,3-oxazol-2-yl)-6-oxo-5,6-dihydropyrido[3,2-d]pyrimidin-2-yl]amino}-3-methoxy-N-(1-methylpiperidin-4-yl)benzamide]
< 100 nM | C/C=C/c1c(OC(C)C2CC2)c(=O)n(C)c2cnc(Nc3ccc(C(=O)NC4CCN(C)CC4)cc3OC)nc12 (stereo not shown) [Example 45, 4-({7-(1-cyclopropylethoxy)-5-methyl-6-oxo-8-[(1E)-prop-1-en-1-yl]-5,6-dihydropyrido[3,2-d]pyrimidin-2-yl}amino)-3-methoxy-N-(1-methylpiperidin-4-yl)benzamide]
< 10 nM | COc1cc(C(=O)NCCC2CCCN2C)ccc1Nc1ncc2c(n1)c(-c1ccsc1)c(OCC1CC1)c(=O)n2C (stereo not shown) [Example 47, 4-{[7-(cyclopropylmethoxy)-5-methyl-6-oxo-8-(3-thienyl)-5,6-dihydropyrido[3,2-d]pyrimidin-2-yl]amino}-3-methoxy-N-[2-(1-methylpyrrolidin-2-yl)ethyl]benzamide]
< 10 nM | COc1cc(C(=O)NC2CCN(C(C)C)CC2)ccc1Nc1ncc2c(n1)c(-c1ccsc1)c(OCC1CC1)c(=O)n2C [Example 49, 4-{[7-(cyclopropylmethoxy)-5-methyl-6-oxo-8-(3-thienyl)-5,6-dihydropyrido[3,2-d]pyrimidin-2-yl]amino}-N-(1-isopropylpiperidin-4-yl)-3-methoxybenzamide]
< 100 nM | CCOc1c(-c2nccs2)c2nc(Nc3ccc(C(=O)NC4CCN(C)CC4)cc3OC)ncc2n(C)c1=O [Example 50, 4-{[7-ethoxy-5-methyl-6-oxo-8-(1,3-thiazol-2-yl)-5,6-dihydropyrido[3,2-d]pyrimidin-2-yl]amino}-3-methoxy-N-(1-methylpiperidin-4-yl)benzamide]
< 10 nM | COc1cc(C(=O)NC2CCN(C)CC2)ccc1Nc1ncc2c(n1)c(-c1ccccc1)c(OCC1CC1)c(=O)n2C [Example 51, 4-{[7-(cyclopropylmethoxy)-5-methyl-6-oxo-8-phenyl-5,6-dihydro-pyrido[3,2-d]pyrimidin-2-yl]amino}-3-methoxy-N-(1-methylpiperidin-4-yl)benzamide]

Structure (SMILES) | IC50
CCOc1c(-c2ccsc2)c2nc(Nc3ccc(C(=O)NC4CCN(C)CC4)cc3OC)ncc2n(C)c1=O [Example 30, 4-{[7-ethoxy-5-methyl-6-oxo-8-(3-thienyl)-5,6-dihydropyrido[3,2-d]pyri-midin-2-yl]amino}-3-methoxy-N-(1-methylpiperidin-4-yl)benzamide] | < 10 nM
CCC(C)Oc1c(-c2ccsc2)c2nc(Nc3ccc(C(=O)NC4CCN(C)CC4)cc3OC)ncc2n(C)c1=O (stereo not shown) [Example 36, 4-{[7-sec-butoxy-5-methyl-6-oxo-8-(3-thienyl)-5,6-dihydropyrido[3,2-d]pyrimidin-2-yl]amino}-3-methoxy-N-(1-methylpiperidin-4-yl)benzamide] | < 100 nM
C/C=C/c1c(OC(C)CC)c(=O)n(C)c2cnc(Nc3ccc(C(=O)NC4CCN(C)CC4)cc3OC)nc12 (stereo not shown) [Example 40, 4-({7-sec-butoxy-5-methyl-6-oxo-8-[(1E)-prop-1-en-1-yl]-5,6-dihydro-pyrido[3,2-d]pyrimidin-2-yl}amino)-3-methoxy-N-(1-methylpiperidin-4-yl)benzamide] | < 100 nM
C/C=C/c1c(OCC(C)C)c(=O)n(C)c2cnc(Nc3ccc(C(=O)NC4CCN(C)CC4)cc3OC)nc12 [Example 41, 4-({7-isobutoxy-5-methyl-6-oxo-8-[(1E)-prop-1-en-1-yl]-5,6-dihydro-pyrido[3,2-d]pyrimidin-2-yl}amino)-3-methoxy-N-(1-methylpiperidin-4-yl)benzamide] | < 10 nM
C#Cc1c(OC)c(=O)n(C)c2cnc(Nc3ccc(C(=O)NC4CCN(C)CC4)cc3OC)nc12 [Example 46, 4-[(8-ethynyl-7-methoxy-5-methyl-6-oxo-5,6-dihydropyrido[3,2-d]pyri-midin-2-yl)amino]-3-methoxy-N-(1-methylpiperidin-4-yl)benzamide] | < 100 nM
COc1cc(C(=O)NCC2CCN(C)CC2)ccc1Nc1ncc2c(n1)c(-c1ccsc1)c(OCC1CC1)c(=O)n2C [Example 48, 4-{[7-(cyclopropylmethoxy)-5-methyl-6-oxo-8-(3-thienyl)-5,6-dihydro-pyrido[3,2-d]pyrimidin-2-yl]amino}-3-methoxy-N-[(1-methylpiperidin-4-yl)methyl] benzamide] | < 10 nM
